According to patent US20260207627A1, “PHYTOECDYSONES FOR USE IN THE TREATMENT OF INFLAMMATORY RESPIRATORY DISEASES” (BIOPHYTIS, priority 2022, published 2026):

Legend:
[1] = test system: mouse model of severe allergic asthma; test: Histological analysis of lung sections stained with hematoxylin and eosin; format: in vivo; conditions: chronic treatment 50 mg/kg/day
Procedure: (§1) Seven-week old mice were sensitized by cutaneous route to house dust mite (HDM) extracts on DO, 7, 14 and 21. After this skin sensitization phase to the allergen, the mice receive the allergen by the nasal route (challenge phase) on D27, 28, 29, 34, 35 and 36 to induce bronchial exacerbation. This severe allergic asthma model has been characterized as mimicking human pathology (Dilasser et al. Thorax 2021).
(§2) BIG101 (batch RL11T1204A0) was administered to the mice in drinking water 7 days a week, at a dose of 50 mg/kg/day. The drinking water containing BI0101 was replaced twice weekly until the animals were sacrificed.

bronchial ring [2] = test: Acute administration in the vessel containing the bronchial ring, contractile response to methacholine; parameters: species or system mouse; conditions: p=ns vs internal control without BI0101
5-HT2A = test: Real-time PCR gene expression in bronchi after chronic treatment; format: in vivo, mouse; conditions: healthy or asthmatic mice, chronic treatment 50 mg/kg/day
Procedure: (§3) Seven-week old mice were sensitized by cutaneous route to house dust mite (HDM) extracts on DO, 7, 14 and 21. After this skin sensitization phase to the allergen, the mice receive the allergen by the nasal route (challenge phase) on D27, 28, 29, 34, 35 and 36 to induce bronchial exacerbation. This severe allergic asthma model has been characterized as mimicking human pathology ([…] et al. Thorax 2021). BIG101 (batch RL11T1204A0) was administered to the mice in drinking water 7 days a week, at a dose of 50 mg/kg/day. The drinking water containing BI0101 was replaced twice weekly until the animals were sacrificed. On […], the bronchi of healthy non-asthmatic mice (control; n=10), non-asthmatic control mice treated with BI0101 (controls+BIO101; n=10), asthmatic mice (Asthma; n=10) and asthmatic mice treated with BI0101 (Asthma+BIO101; n=10) were collected. After RNA extraction from these tissues (Trizol©, ThermoFisher cat. 15596018), an analysis of serotonin receptor (5-HT1A, 5-HT1B, 5-HT2A, 5-HT2B and 5-HT7) and serotonin transporter (5HTT) expression was evaluated with real-time PCR (TaqManTM, Universal PCR MasterMix, ThermoFisher cat. 4304437). The list of ThermoFisher Scientific commercial test references used for real-time PCR to obtain the results for each of the genes is given in Table 1 below: […]

5-HT1B = test: as above; format: in vivo, mouse; conditions: healthy or asthmatic mice, chronic treatment 50 mg/kg/day
Procedure: as §3

5-HT1A receptor = test: as above; format: in vivo, mouse; conditions: chronic treatment 50 mg/kg/day, D38, p<0.05
Procedure: as §3

5-HT2B = test: as above; format: in vivo, mouse; conditions: healthy or asthmatic mice, chronic treatment 50 mg/kg/day
Procedure: as §3

5-HT7 = test: as above; format: in vivo, mouse; conditions: healthy or asthmatic mice, chronic treatment 50 mg/kg/day
Procedure: as §3

5-HTT = test: as above; format: in vivo, mouse; conditions: healthy or asthmatic mice, chronic treatment 50 mg/kg/day
Procedure: as §1, with “([…]” for “(Dilasser”, “2021). BIG101 (batch RL11T1204A0) was administered to the mice in drinking water 7 days a week, at a dose of 50 mg/kg/day. The drinking water containing BI0101 was replaced twice weekly until the animals were sacrificed.” for “2021).”

bronchial ring [3] = test: Acute administration in the vessel containing the bronchial ring, contractile response to serotonin; parameters: species or system mouse; conditions: p=ns vs internal control without BI0101
[4] = test system: mouse model of severe allergic asthma; test: Bronchoalveolar fluid cellularity; format: in vivo
Procedure: Seven-week old mice were sensitized by cutaneous route to house dust mite (HDM) extracts on DO, 7, 14 and 21. After this skin sensitization phase to the allergen, the mice receive the allergen by the nasal route (challenge phase) on D27, 28, 29, 34, 35 and 36 to induce bronchial exacerbation. This severe allergic asthma model has been characterized as mimicking human pathology ([…] et al. Thorax 2021). BIG101 (batch RL11T1204A0) was administered to the mice in drinking water 7 days a week, at a dose of 50 mg/kg/day. The drinking water containing BI0101 was replaced twice weekly until the animals were sacrificed. On […], sterile PBS (between 200 μL and 1 mL) was administered by the intratracheal route to the mice using a catheter. The bronchoalveolar fluid (BALF) cells and supernatant are retrieved and separated by centrifugation. The total number of cells was counted on Kova slides by optical microscopy. The cellularity of each sample was evaluated by calculating the ratio of the total number of cells counted, divided by the volume of bronchoalveolar fluid. The cellularity represents the infiltrate of immune cells (macrophages, lymphocytes, eosinophils and neutrophils).

murine bronchial ring [5] = test: Ex vivo bronchial ring contraction (Mulvany myograph) after chronic treatment, methacholine-induced bronchoconstriction; format: in vivo, mouse; conditions: asthmatic mice
Procedure: as §1, §2
(§4) The evaluation of the effect of chronic administration of BI0101 treatment on ex vivo murine bronchial ring contraction was carried out in an isolated organ chamber (isometric tension measurement, Mulvany myograph, DMT, Hinnerup, Denmark) (André-Grégoire et al., 2018).
(§5) The bronchi are collected, cleaned, cut into rings and set up in the Mulvany myograph. The rings are pre-stretched and then stimulated with 60 mM KCl until the contractile response amplitude has stabilized (2 or 3 stimulations) before the start of each experimental protocol. […]

murine bronchial ring [6] = test: Ex vivo bronchial ring contraction (Mulvany myograph) after chronic treatment, serotonin-induced bronchoconstriction; format: in vivo, mouse; conditions: asthmatic mice
Procedure: as §1, §2, §4, §5

[7] = test system: mouse model of severe allergic asthma; test: Respiratory function by plethysmography (Penh) in response to methacholine; format: in vivo
Procedure: as §1, §2
In order to study whether the reduction of inflammation in BALF could induce functional improvement after severe asthma induction, respiratory function was evaluated by plethysmography. This technique makes it possible to carry out a longitudinal study of respiratory capacity and also expiratory pause time (Penh) non-invasively. Breathing-induced flow and pressure changes are measured before and after exposure to nebulization with increasing doses of NaCl followed by methacholine. […]
The pressure variations measured relative to a reference chamber make it possible to define various respiratory parameters such as inspiratory and expiratory pressure peaks and times, and also a unitless parameter referred to as Penh (enhanced Pause) which makes it possible to evaluate bronchoconstriction. Indeed, the Penh value, calculated from the pressure signal in the chamber (Pb), is an important index to obtain, because changes in the Penh value evolve in parallel with those of respiratory resistance and therefore it represents a predictive parameter of changes in resistive properties of the respiratory system (Hamelmann et al., 1997; Bergren, 2001; Onclinx et al., 2003). The following values were calculated from the filtered Pb: the maximum change in Pb during expiration (PEP for “Peak Expiratory Pressure”), the maximum change in Pb during inspiration (PIP for “Peak Inspiratory Pressure”), and the time interval (TR). The Penh value was then calculated as follows: […]

[8] = chronic treatment 50 mg/kg/day in drinking water, D38, Asthma vs Asthma+BIO101 p<0.0001

Compound: CC(C)(O)CC[C@@H](O)[C@](C)(O)[C@H]1CC[C@@]2(O)C3=CC(=O)[C@@H]4C[C@@H](O)[C@@H](O)C[C@]4(C)[C@H]3CC[C@]12C [BI0101, 20-hydroxyecdysone]
- increase in bronchial muscle mass and epithelial barrier dysfunction associated with severe asthma ([1]; asthmatic mice): appear to be less substantial
- peribronchial and perivascular inflammation ([1]; asthmatic mice): reduces
- effect on lung histology ([1]; healthy mice (control)): has no effect
- contractile response to methacholine (bronchial ring [2]): 0.41±0.25 mN
- 5-HT2A gene expression in bronchi (5-HT2A): does not induce any modification
- 5-HT1B gene expression in bronchi (5-HT1B): does not induce any modification
- 5-HT1A receptor gene expression decrease in bronchi (5-HT1A receptor; asthmatic mice (asthma+BIO101)): −69±3%
- 5-HT1A receptor gene expression decrease in bronchi (5-HT1A receptor; healthy mice (control+BIO101)): −49%±12%
- 5-HT2B gene expression in bronchi (5-HT2B): does not induce any modification
- 5-HT7 gene expression in bronchi (5-HT7): does not induce any modification
- 5-HTT (serotonin transporter) gene expression in bronchi (5-HTT): does not induce any modification
- contractile response to serotonin (bronchial ring [3]): 0.29±0.14 mN
- change of BALF cellularity (inflammation present in BALFs) ([4]; asthmatic mice treated with BI0101 vs asthmatic mice, D38, p=ns): −39.8%
- BALF cellularity (total number of cells divided by volume of bronchoalveolar fluid) ([4]; control mice treated with BI0101, D38, p=ns vs untreated control): 260±64
- methacholine-induced bronchoconstriction (murine bronchial ring [5]; [8]): significantly decreases
- prevention of exacerbated bronchial airway reactivity (methacholine) (murine bronchial ring [5]; chronic treatment 50 mg/kg/day, Asthma+BIO101 vs Control p=0.0025): does not prevent
- serotonin-induced bronchoconstriction (murine bronchial ring [6]; [8]): significantly reduces
- prevention of exacerbated bronchial airway reactivity (serotonin) (murine bronchial ring [6]; chronic treatment 50 mg/kg/day, Asthma+BIO101 vs Control p=0.9997): completely prevents
- Penh value ([7]; asthmatic mice treated with BI0101, 50 mg/kg/day, 40 mg/ml of methacholine): 9.81±1.1
- reduction of the Penh value ([7]; asthmatic mice treated with BI0101 vs asthmatic mice, 40 mg/ml of methacholine, p<0.05): 18.1%
- effect on respiratory function (Penh, methacholine aerosol) ([7]; healthy control mice treated with BI0101): does not appear to have an effect
